{
  "source": "patent US7781580B2",
  "about": "“Stilbene derivatives as new cancer therapeutic agents” (Virginia Commonwealth University, priority 2007, dated 2010)",
  "tested_on": "HL60 leukemic cells (xenograft)",
  "test": "HL60 xenograft model in SCID mice",
  "assay_type": "in vivo",
  "method": "FIG. 20. Effect of stilbene 4a in vivo. (a) Induction of cell death in vivo by stilbene 4a. Tumor was harvested at 24 hours after treatment for TUNEL assay. (b) Histological sections of tumor. Tumor harvested at 24 hours after injection of stilbene 4a was analyzed by H & E staining. The area with lighter color is the necrotic region. (c) Tumor growth suppression. SCID mice were injected subcutaneously with 5×10^6 HL60 cells at each flank. Once the diameter of tumor reached 5 mm in diameter in majority of mice, mice were treated with 5 daily injection of stilbene 4a. Tumor volume was calculated by the long and short axis of tumor and plotted against days. Each group contains 5 mice.\nHL60 leukemic cells were injected subcutaneously into ICR-scid mice (Taconic Inc.) on flank. After tumor becomes visible after 12 days, Mice will be treated with stilbene 4a by intravenous injection after dissolved in 10% DMSO in normal saline. For acute effect study, mice were sacrificed 24 hours after injection and tumor and bone marrow were harvested for histological staining and flow cytometry analysis. For long term effect study, stilbenes were injected intravenously from tail veins at 2 or 10 mg/kg for 5 consecutive days. Negative control mice were treated with 10% DMSO in normal saline and positive control mice were treated with Ara-C at 5 mg/kg. Tumor volume was measured twice a week for 4 weeks by the long and short axes of tumor. Volume was calculated by the formula ab^2/2, in which “a” represents the long axis and “b” the short axis of tumor. Mice were euthanized if the calculated tumor reached 10% of the body weight.",
  "data": [
    {"smiles": "COc1cc(/C=C\\c2ccc(OC)c(N)c2)cc(OC)c1", "note": "[4a, (Z)-5-[2-(3,5-Dimethoxy-phenyl)-vinyl]-2-methoxy-phenylamine]", "values": [
      {"measurement": "tumor growth suppression", "setting": "10 mg/kg intravenously daily for 5 days, 12 days after the first injection", "value": 50, "unit": "%"},
      {"measurement": "percentage of apoptosis in tumor (TUNEL)", "setting": "10 mg/kg intravenously, 24 hours", "value": 22, "unit": "%"},
      {"measurement": "percentage of apoptosis in tumor (TUNEL)", "setting": "50 mg/kg intravenously, 24 hours", "value": 62, "unit": "%"},
      {"measurement": "percentage of apoptosis in tumor (TUNEL)", "setting": "100 mg/kg intravenously, 24 hours", "value": 58, "unit": "%"},
      {"measurement": "bone marrow TUNEL (acute marrow toxicity)", "setting": "50 and 100 mg/kg, 24 hours", "value": "No increase in TUNEL positive cells was observed"}
    ]}
  ]
}
